The target in test [1] is T1, uracil monophosphate synthetase (UMPS) overexpressed in HEK cells (Homo sapiens, UniProt P11172).
T1 construct: expressed in transfected cells; host or cells: HEK cells
T1 sequence (P11172 1-480): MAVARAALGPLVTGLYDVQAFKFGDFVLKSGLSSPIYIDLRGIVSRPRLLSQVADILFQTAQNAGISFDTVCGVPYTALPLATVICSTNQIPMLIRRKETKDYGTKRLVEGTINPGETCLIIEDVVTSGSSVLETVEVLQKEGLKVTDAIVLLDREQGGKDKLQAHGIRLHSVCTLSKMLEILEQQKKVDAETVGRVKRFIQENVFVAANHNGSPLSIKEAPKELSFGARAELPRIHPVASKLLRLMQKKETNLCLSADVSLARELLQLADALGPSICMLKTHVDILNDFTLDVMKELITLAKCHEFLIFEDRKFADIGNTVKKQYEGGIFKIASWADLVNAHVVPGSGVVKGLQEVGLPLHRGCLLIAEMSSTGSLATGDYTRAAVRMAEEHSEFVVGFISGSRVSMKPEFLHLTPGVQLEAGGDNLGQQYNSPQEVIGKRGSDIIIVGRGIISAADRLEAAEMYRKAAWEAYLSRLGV
Briefly: RNA incorporation with overexpression of UMPS, dot blot. The test is classed as cell-based. The settings on record: 1 mM, 24 hours, FIG. 12. As for the experimental part: Analogs were incubated for 24 hours at 1 mM concentration in HEK cells. RNA was extracted and biotinylated using MTSEA-Biotin, followed by dot-blot analysis. Strep-HRP=Streptavidin conjugated Horseradish peroxidase. MeBI=methylene blue staining serving as loading control.

The next test has as its system (−)TgUPRT HEK cells. Briefly: Background incorporation of uracil analogs into RNA, streptavidin-HRP dot blot. The test is classed as cell-based. As to conditions: 1 mM, mimics in vivo applications, FIG. 4. As for the experimental part:
(§1) Transfection, labeling of cellular RNA and RNA isolation: After 48h seeding, HEK293 cells were transfected with 2.5 μg of TgUPRT WT or mutant plasmids (pKN-CMV-TgUPRT-WT or -Mutt to Mut17) per 5 cm plate using JetPrime Transfection reagent (Polyplus Transfection, France). At 40h post-transfection, cells were incubated with a final concentration of 200 μM at <1% DMSO from 400 mM stock of uracil analogs (5EU, 5VU, 5AU) or 200 mM SAMU stock for 5 h. For time course study, HEK cells were treated with 200 μM uracil analogs for 0 h, 0.5, 1, 3, 5, 12 and 24 hours. For titrating uracil analog concentration experiments, HEK cells were treated with 0 (DMSO), 50, 100, 200, 500 μM or 1 mM uracil analog for 5h. Treated HEK cells were subjected to total RNA extraction using 1 mL Trizol Reagent (Invitrogen) following the manufacturer instructions.
(§2) Biotinylation via CuAAC and IEDDA: Cu-mediated Azide-Alkyne cycloaddition (CuAAC) click reactions were performed in 50 μL reaction at 22° C. on a shaker for 30 min with click reaction cocktail containing 15 μg of total RNA, 1 mM biotin alkyne or biotin azide, fresh 4.6 mM THPTA to a final concentration of 1 mM, and fresh 10.6 mM sodium ascorbate (NaAsc) at final concentration of 1.77 mM, and 12 mM CuSO4 at final concentration of 200 μM in biotinylation reaction buffer (10 mM TrisHCI, 1 mM EDTA, pH7.4). The biotinylated RNA was purified using RNA clean & Concentrator-5 kit (Zymo Research, Cat #R1013) according to the manufacturer instructions and eluted in 21 μL of nuclease free water.
(§3) Inverse electron demand [4+2] Diels-Alder cycloaddition (IEDDA) click reactions were performed in 50 μL at 37° C. or 22° C. (RT) for 3h on mixer at 500 rpm containing 10-15 μg of total RNA, 1 mM final concentration of biotin-benzyl tetrazine (Sigma Aldrich, Cat #793329-5MG) in nuclease free water. Clicked total RNA was purified using RNA clean & Concentrator-5 kit (Zymo Research, Cat #R1013) according to the manufacturer instructions, and RNA was eluted in 21 μL of nuclease free water.
HRP-streptavidin dot blot analysis: All gel reagents were from Bio-Rad. For dot blot analysis, 2 μg of clicked total RNA was applied onto Hybond-N+ membrane (GE Healthcare) as individual dots and UV-crosslinked (254 nm) to a membrane (Stratalinker UV crosslinker). Membranes were blocked in blocking buffer (0.12 M NaCl, 0.016 M Na2HPO4, 0.008 M NaH2PO4, 0.17 M SDS) and followed by incubation with high sensitivity streptavidin-HRP (Fisher Scientific, Cat #: P121130) at 1:5000 dilution in blocking buffer for 5 minutes. The membrane was washed twice in a Wash A buffer (1:10 dilution of blocking buffer) and twice in Wash B buffer (Tris-saline buffer). […]

Test [2] addresses T2, wild-type (WT) TgUPRT in HEK cells (Toxoplasma gondii, UniProt Q26998).
T2 construct: 6xHis; expressed in transfected cells; host or cells: HEK293 (HEK293T)
The test is described as follows: In-cell RNA incorporation by wild-type TgUPRT, streptavidin dot blot. The class given is cell-based. The settings on record: wild-type TgUPRT active site. As for the experimental part:
as §1, §2, §3
HRP-streptavidin dot blot analysis: All gel reagents were from Bio-Rad. […]

The next test concerns UPRT(+)-microglia brains. Briefly: In vivo labeling of brain RNA in mice transplanted with UPRT-expressing human microglia, biotin dot blot. The settings on record: IP close to 150 mg/kg, 24-48 hours, FIG. 14. As for the experimental part: 5-vinyl-uracil (Alfa Aesar #4437903) was prepared in sterile conditions at 4 times the concentration in 100% DMSO, then diluted to 25% DMSO by adding corn oil to a final concentration of 500 mM. The mixture was heated to 37° C. for […] until homogenous. Mice are weighed before intraperitoneal injection (IP) injection to ensure close to 150 mg/kg are injected per treatment. For an (˜20 g) adult mouse typically 60-70 μl are IP injected per treatment. Mice are monitored for signs of distress. After 24-48 hours of treatment, mice were sacrificed and brains were immediately placed into 2 ml of RNAlater and left in 4° C. for 3-5 days. After removing brains from RNAlater, they were homogenized with RNAse-free 1.4 mm steel beads (Next Advance SSB14B-RNA) for 60 seconds and centrifuged at 4° C. for 5 min, maximum speed to separate the fatty layer. The bottom layer is collected, homogenized with 200 ul chloroform and centrifuged for 20 minutes, at 4° C. The aqueous layer is collected and 500 ul isopropanol added. After centrifugation for 30 minutes 4° C., the RNA pellet is washed in 70% Ethanol twice. After removing ethanol, the RNA pellet is resuspended in nuclease-free water and nanodrop to determine the concentration. From each sample, 15 μg of RNA was subjected in tetrazine-biotin ligation at 37° C., 500 RPM for 3 hours. The biotinylated RNA was purified with RNA Zymo Clean and Concentrator #5 and eluted with nuclease-free water. 2 μg of purified RNA was spotted onto a N+ Hybond membrane and UV-crosslinked at 254 nm (120,000 uJ). Membrane is blocked in blocking buffer (0.12 M NaCl, 0.016 M Na2HPO4, 0.008 M NaH2PO4, 0.17 M SDS) and followed by incubation with high sensitivity streptavidin-HRP (Fisher Scientific, Cat #: P121130) at 1:5000 dilution in blocking buffer for 5 minutes. The membrane was washed twice in a Wash A buffer (1:10 dilution of blocking buffer) and twice in Wash B buffer (Tris-saline buffer). It was then incubated for 1-5 min. in ECL Chemiluminescent Substrate (Fisher Scientific, Cat #: P132106) and imaged on a ChemiDoc MP imaging system (Bio-Rad). […]

A further test deals with mutants TgUPRT. The test is described as follows: Phosphoribosyltransferase activity with recombinant TgUPRT mutants. The class given is biochemical, Toxoplasma gondii. As to conditions: five recombinant TgUPRT mutants, FIG. 9A. As for the experimental part: Enzyme activity assay: The standard activity assay was performed by incubating 10 μL of free extract or 0.5 μg of pure His-tag enzyme with 1 mM Phosphoribosyl pyrophosphate (PRPP), 1 mM uracil, 5 mM MgCl2 in 50 mM PBS buffer pH 7.4 in a final volume of 80 μL. The reaction mixture was incubated at 37° C. for 2-5 min (300 rpm). Enzyme was inactivated by adding 80 μL of cold methanol in ice-bath and heating for 5 min at 100° C. After centrifugation at 9000×g for 5 min, samples were half-diluted with water and the NMP production was analysed by HPLC to quantitatively measure the reaction products as described below in the analytical methods. All determinations were carried out in triplicate assuming Michaelis-Menten conditions, and the maximum error was below 5%. In such conditions, one international activity unit (IU) was defined as the amount of enzyme producing 1 μmol/min of UMP under the assay conditions.
Substrate specificity studies Enzymatic synthesis of the different pyrimidine nucleoside monophosphate (NMP) derivatives was carried out by incubating 0.5 μg of pure His-tag enzyme with 1 mM PRPP, 1 mM pyrimidine base and 5 mM MgCl2 in 50 mM PBS buffer pH 7.4 (1.6-3.2% v/v DSMO). The experiments were performed according to the standard assay. Subsequently, the reaction mixture was processed as described above and the NMP production was analyzed by HPLC.
Analytical methods: The production of NMPs was quantitatively measured with an ACE EXCEL 5 μm CN-ES 250×4.6 mm equilibrated with 100% trimethyl ammonium acetate at a flow rate of 0.8 mL/min. Retention times for the reference bases and NMPs (hereafter abbreviated according to the recommendations of the IUPAC-IUB Commission on Biochemical Nomenclature) were as follows: uracil (Ura), 4.7 min; 5-azido uracil (5-AUra). […]
Following these exciting observations, a more quantitative approach to examined for differences between enzyme mutants and their enzyme kinetics with the analogs. […] Each purified enzyme was incubated with the different substrates and phosphoribosyltransferase activity was measured (FIG. 9A).

Each structure is given as a SMILES string. Entries after “also recorded” stand apart in the source; their conditions may differ.

T2 sequence (Q26998 whole entry): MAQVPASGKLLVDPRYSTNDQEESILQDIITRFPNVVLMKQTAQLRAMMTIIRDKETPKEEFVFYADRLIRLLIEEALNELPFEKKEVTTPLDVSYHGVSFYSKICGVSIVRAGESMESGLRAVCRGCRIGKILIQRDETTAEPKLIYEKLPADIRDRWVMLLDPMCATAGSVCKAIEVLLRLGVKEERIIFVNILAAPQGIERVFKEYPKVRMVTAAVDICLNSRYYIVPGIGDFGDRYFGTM

`O=c1[nH]c(=S)ccn1[C@@H]1O[C@H](CO)[C@@H](O)[C@H]1O` [4-thiouridine, reference compound]: the “incorporation into cellular RNA with UMPS overexpression” value in test [1] was “incorporation”. In the case of `[N-]=[N+]=Nc1c[nH]c(=O)[nH]c1=O` [compound 4, 5-Azidopyrimidine-2,4(1H,3H)-dione], the “incorporation into RNA at higher concentration” value with (−)TgUPRT HEK cells was “higher incorporation”. For `O=c1[nH]ccc(=S)[nH]1` [4-thiouracil, reference compound], the “incorporation into cellular RNA with UMPS overexpression” value in test [1] was “higher amount”. Further, the “TgUPRT-dependent incorporation into cellular RNA” value in test [2] is listed as “has the ability to be incorporated into cellular RNA”.

On to `C=Cc1cn([C@@H]2O[C@H](CO)[C@@H](O)[C@H]2O)c(=O)[nH]c1=O` [5-vinyluridine, reference compound], for which the “incorporation into brain RNA, UPRT(+)-microglia transplanted” value with UPRT(+)-microglia brains is “incorporated into brain RNA; also recorded: incorporation”. In the case of `O=c1cc[nH]c(=O)[nH]1` [Uracil, uracil, reference compound], the “reactivity with the mutants (phosphoribosyltransferase activity)” value in the test with mutants TgUPRT is given as “reactivity of uracil for all five mutants was observed”.
